BindingDB's records for doi:10.1021/jm034182u (Virginia Commonwealth University, 2004)

Target: E3 ubiquitin-protein ligase Mdm2 (Homo sapiens, UniProt Q00987)
Assay: ELISA-Based p53-MDM2 Binding Assay
Conditions: pH 7.6; 37 °C
Description: ELISA plates were coated with equivalent amounts of either glutathione S-transferase (GST) protein or GST-MDM2 (1-188) fusion protein and incubated on a microtiter plate shaker overnight at 4 deg C. After washing the wells five times with PBS containing 0.2 M NaCl, the plates were incubated at 37 deg C with blocking solution (PBS containing 5% nonfat dry milk) for 2 hours. After the plates were washed five times, the GST-p53 was added, and the plates were incubated for an additional 30 minutes at 37 deg C. After another washing step, the plates were incubated with the anti-p53 monoclonal pAb421 (Oncogene Science, Inc.) in blocking solution for 1 hour at 37 deg C. The plates were again washed five times and incubated for 1 hour at 37 deg C with a goat anti-mouse IgG alkaline phosphatase conjugate (Promega, Inc.). Excess antibody was removed with 15 washes, the wells were filled with PBS, and the absorbance at 405 nm was read to establish background readings for the wells. […] Finally, the A405 was measured with a microplate spectrophotometer (Molecular Devices, Inc.). […] Absorbance values were normalized by subtraction of equivalent GST-seeded well values from their GST-mdm2 (1-188)-seeded neighbors. IC50 values were determined by fitting data to a three-parameter sigmoidal dose-response function.

Chain of E3 ubiquitin-protein ligase Mdm2 (Q00987 whole entry): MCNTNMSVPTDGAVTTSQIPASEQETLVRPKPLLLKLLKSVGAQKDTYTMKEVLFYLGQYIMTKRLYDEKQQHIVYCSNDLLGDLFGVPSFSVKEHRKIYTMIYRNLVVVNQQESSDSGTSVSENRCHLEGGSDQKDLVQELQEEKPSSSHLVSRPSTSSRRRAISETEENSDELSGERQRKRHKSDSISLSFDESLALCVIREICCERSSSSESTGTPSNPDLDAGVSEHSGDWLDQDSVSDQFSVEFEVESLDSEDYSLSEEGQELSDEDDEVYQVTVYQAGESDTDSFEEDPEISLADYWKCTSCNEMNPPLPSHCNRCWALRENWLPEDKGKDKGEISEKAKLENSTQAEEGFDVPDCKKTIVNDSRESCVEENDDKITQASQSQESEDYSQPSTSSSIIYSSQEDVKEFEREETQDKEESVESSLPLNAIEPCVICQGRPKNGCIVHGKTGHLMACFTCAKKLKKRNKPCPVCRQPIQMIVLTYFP

With CC(C)Oc1ccc(C(=O)NS(=O)(=O)c2ccc(N=Nc3c(O)n(-c4ccccc4)n(-c4ccccc4)c3=O)cc2)cc1 as the compound, how does the IC50 read?
Its IC50 is 31.8 µM.
